These results are taken from US10450297B2, “Sulfonyl amide derivatives for the treatment of abnormal cell growth” (Pfizer, Inc., priority 2007, dated 2019).

A value given as a limit tells only on which side of the number the result lay.

In this experiment the target is FAK kinase (catalytic construct FAK(410-689)) (Homo sapiens (Human), UniProt Q05397). Nature of the experiment: FAKcd kinase ELISA (inhibition of poly-glu-tyr phosphorylation by FAK(410-689)). It counts as biochemical. To be noted: 50 μM final ATP. (In general: In an ELISA, binding on a coated surface is turned into a signal by an enzyme label.)
Sequence of FAK kinase (catalytic construct FAK(410-689)) (Q05397 410-689): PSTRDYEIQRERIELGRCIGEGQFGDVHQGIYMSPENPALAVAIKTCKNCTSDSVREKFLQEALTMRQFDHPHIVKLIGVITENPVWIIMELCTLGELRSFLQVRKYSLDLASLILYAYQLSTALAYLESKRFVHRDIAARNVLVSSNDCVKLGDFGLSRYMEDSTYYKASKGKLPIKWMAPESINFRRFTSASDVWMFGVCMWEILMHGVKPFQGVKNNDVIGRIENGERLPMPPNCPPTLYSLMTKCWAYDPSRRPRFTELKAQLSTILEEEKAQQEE
In the case of `CC(=O)NCC(=O)N1CCC(Nc2ncc(C(F)(F)F)c(NCc3cccnc3N(C)S(C)(=O)=O)n2)CC1` [Compound 56, N-{2-[4-({4-[({2-[methyl(methylsulfonyl)amino]pyridin-3-yl}methyl)amino]-5-(trifluoromethyl)pyrimidin-2-yl}amino)piperidin-1-yl]-2-oxoethyl}acetamide], the IC50 (commonly the concentration needed to halve the response being measured) was 188 nM. Compound `CN(c1ncccc1CNc1nc(Nc2ccc(C(=O)NC3CCC3)cc2)ncc1C(F)(F)F)S(C)(=O)=O` [Compound 240, N-cyclobutyl-4-({4-[({2-[methyl(methylsulfonyl)amino]pyridin-3-yl}methyl)amino]-5-(trifluoromethyl)pyrimidin-2-yl}amino)benzamide] yielded an IC50 of 0.69 nM. Consider `CN(c1ncccc1CNc1nc(Nc2ccc(C(=O)N3CCCCC3)cc2)ncc1C(F)(F)F)S(C)(=O)=O` [Compound 258, N-methyl-N-[3-({[2-{[4-(piperidin-1-ylcarbonyl)phenyl]amino}-5-(trifluoromethyl)pyrimidin-4-yl]amino}methyl)pyridin-2-yl]methanesulfonamide], for which it took 1.79 nM to reach half-maximal inhibition (IC50). The same measure for `CN(C)CCCNC(=O)c1cccc(Nc2ncc(C(F)(F)F)c(NCc3cccnc3N(C)S(C)(=O)=O)n2)c1` [Compound 145, N-[3-(dimethylamino)propyl]-3-({4-(({2-[methyl(methylsulfonyl)amino]pyridin-3-yl}methyl)amino]-5-(trifluoromethyl)pyrimidin-2-yl}amino)benzamide]: 2.54 nM; for `CN(c1ncccc1CNc1nc(Nc2ccc(CNC(N)=O)cc2)ncc1C(F)(F)F)S(C)(=O)=O` [Compound 216, N-{3-[({2-[(4-{[(aminocarbonyl)amino]-methyl}phenyl)amino]-5-(trifluoromethyl)pyrimidin-4-yl}amino)methyl]pyridin-2-yl}-N-methylmethane-sulfonamide]: 0.6 nM; for `Cc1ccc(CNc2nc(Nc3ccc(C(N)=O)cc3)ncc2C(F)(F)F)c(N(C)S(C)(=O)=O)c1` [Compound 109, 4-{[4-({4-methyl-2-[methyl(methylsulfonyl)amino]benzyl}amino)-5-(trifluoromethyl)pyrimidin-2-yl]amino}benzamide]: 0.6 nM.

On to `CN(c1ncccc1CNc1nc(Nc2cc(C(N)=O)ccc2F)ncc1C(F)(F)F)S(C)(=O)=O` [Compound 375, 4-fluoro-3-({4-[({2-[methyl(methylsulfonyl)amino]pyridin-3-yl}methyl)amino]-5-(trifluoromethyl)pyrimidin-2-yl)amino)benzamide], for which the IC50 turned out to be 6.29 nM. Take `CN1CCC(NC(=O)c2ccc(Nc3ncc(C(F)(F)F)c(NCc4cccnc4N(C)S(C)(=O)=O)n3)cc2)CC1` [Compound 250, 4-({4-[({2-[methyl(methylsulfonyl)amino]pyridin-3-yl}methyl)amino]-5-(trifluoromethyl)pyrimidin-2-yl}amino)-N-(1-methylpiperidin-4-yl)benzamide]: the IC50 came out at 0.69 nM. As for `CN(c1ncccc1CNc1nc(Nc2cccc(C(=O)NC[C@H]3CCCO3)c2)ncc1C(F)(F)F)S(C)(=O)=O` [Compound 117, 3-({4-[({2-[methyl(methylsulfonyl)amino]pyridin-3-yl}methyl)amino]-5-(trifluoromethyl)pyrimidin-2-yl}amino)-N-[(2R)-tetrahydrofuran-2-ylmethyl]benzamide], 1.47 nM corresponded to half-maximal inhibition (IC50). `CN(c1nccnc1CNc1nc(Nc2ccc(C(N)=O)c(O)c2)ncc1C(F)(F)F)S(C)(=O)=O` [Compound 395, 2-hydroxy-4-({4-(({3-[methyl(methylsulfonyl)amino]pyrazin-2-yl}methyl)amino]-5-(trifluoromethyl)pyrimidin-2-yl}amino)benzamide] had an IC50 of 0.849 nM. For the compound `CN(c1ncccc1CNc1nc(Nc2cccc(C(=O)OC(C)(C)C)c2)ncc1C(F)(F)F)S(C)(=O)=O` [Example 9, tert-butyl 3-({4-[({2-[methyl(methylsulfonyl)amino]pyridin-3-yl}methyl)amino]-5-(trifluoromethyl)pyrimidin-2-yl}amino)benzoate], 0.6 nM corresponded to half-maximal inhibition (IC50). In turn, `CN(c1cccnc1CNc1nc(Nc2cc(C(N)=O)ccc2F)ncc1C(F)(F)F)S(C)(=O)=O` [Compound 378, 4-fluoro-3-({4-[({3-[methyl(methylsulfonyl)amino]pyridin-2-yl}methyl)amino]-5-(trifluoromethyl)pyrimidin-2-yl}amino)benzamide] registered an IC50 of 1.94 nM. Regarding `CN(c1ncccc1CNc1nc(Nc2cccc(C(=O)N(CCO)CCO)c2)ncc1C(F)(F)F)S(C)(=O)=O` [Compound 129, N,N-bis(2-hydroxyethyl)-3-({4-[({2-[methyl(methylsulfonyl)amino]pyridin-3-yl}methyl)amino]-5-(trifluoromethyl)pyrimidin-2-yl}amino)benzamide], the IC50 amounted to 0.76 nM. `Cc1cccc(NS(C)(=O)=O)c1CNc1nc(Nc2ccc(-c3nnn[nH]3)cc2)ncc1C(F)(F)F` [Compound 287, N-[3-methyl-2-({[2-{[4-(1H-tetrazol-5-yl)phenyl]amino}-5-(trifluoromethyl)pyrimidin-4-yl]amino}methyl)phenyl]methanesulfonamide] registered an IC50 of 1.95 nM. As for `COc1ccc(C(N)=O)cc1Nc1ncc(C(F)(F)F)c(NCc2nccnc2N(C)S(C)(=O)=O)n1` [Compound 307, 4-methoxy-3-({4-[({3-[methyl(methylsulfonyl)amino)pyrazin-2-yl}methyl)amino]-5-(trifluoromethyl)pyrimidin-2-yl}amino)benzamide], half-maximal inhibition (IC50) was put at 1.11 nM. The same measure for `CNCc1ccc(Nc2ncc(C(F)(F)F)c(NCc3cccnc3N(C)S(C)(=O)=O)n2)cc1` [Compound 414, N-methyl-N-[3-({[2-({4-[(methylamino)methyl]phenyl}amino)-5-(trifluoromethyl)pyrimidin-4-yl]amino}methyl)pyridin-2-yl]methanesulfonamide]: less than 0.595 nM; for `CCCN(CCO)C(=O)c1cccc(Nc2ncc(C(F)(F)F)c(NCc3cccnc3N(C)S(C)(=O)=O)n2)c1` [Compound 193, N-(2-hydroxyethyl)-3-({4-[({2-[methyl(methylsulfonyl)amino]pyridin-3-yl}methyl)amino]-5-(trifluoromethyl)pyrimidin-2-yl}amino)-N-propylbenzamide]: 1.1 nM; for `CN(c1ncccc1CNc1nc(Nc2ccc(C3COC(C)(C)O3)cc2)ncc1C(F)(F)F)S(C)(=O)=O` (stereo not shown) [Compound 410, N-[3-({[2-{[4-(2,2-dimethyl-1,3-dioxolan-4-yl)phenyl]amino}-5-(trifluoromethyl)pyrimidin-4-yl)amino}methyl)pyridin-2-yl]-N-methylmethane-sulfonamide]: 1.19 nM. For `CN(c1cccnc1CNc1nc(Nc2ccc(C(N)=O)c(F)c2)ncc1C(F)(F)F)S(C)(=O)=O` [Compound 332, 2-fluoro-4-({4-[({3-[methyl(methylsulfonyl)amino]pyridin-2-yl}methyl)amino]-5-(trifluoromethyl)pyrimidin-2-yl}amino)benzamide], the IC50 turned out to be 0.863 nM. In the case of `CN(c1ncccc1CNc1nc(Nc2ccc(C(N)=O)cc2)ncc1C(F)(F)F)S(C)(=O)=O` [Compound 20, 4-({4-[({2-[methyl(methylsulfonyl)amino]pyridin-3-yl}methyl)amino]-5-(trifluoromethyl)pyrimidin-2-yl}amino)benzamide], the IC50 was 0.6 nM.

In the case of `Cc1cc(C(N)=O)ccc1Nc1ncc(C(F)(F)F)c(NCc2nccnc2N(C)S(C)(=O)=O)n1` [Compound 344, 3-methyl-4-({4-[({3-[methyl(methylsulfonyl)amino]pyrazin-2-yl}methyl)amino]-5-(trifluoromethyl)pyrimidin-2-yl}amino)benzamide], half-maximal inhibition (IC50) was put at 0.9 nM. With `CN(c1ncccc1CNc1nc(Nc2ccc(C(=O)N3CCC(O)CC3)cc2)ncc1C(F)(F)F)S(C)(=O)=O` [Compound 239, N-[3-({[2-({4-[(4-hydroxypiperidin-1-yl)carbonyl]phenyl}amino)-5-(trifluoromethyl)pyrimidin-4-yl]amino}methyl)pyridin-2-yl]-N-methylmethane-sulfonamide], the IC50 came out at 0.6 nM. The same measure for `CN(c1ncccc1CNc1nc(Nc2cccc(C(=O)N3CCNC(=O)C3)c2)ncc1C(F)(F)F)S(C)(=O)=O` [Compound 213, N-methyl-N-[3-({[2-({3-[(3-oxopiperazin-1-yl)carbonyl]phenyl}amino)-5-(trifluoromethyl)pyrimidin-4-yl]amino}methyl)pyridin-2-yl]methanesulfonamide]: 2.88 nM; for `CN(c1ncccc1CNc1nc(Nc2ccc(C(O)CO)cc2)ncc1C(F)(F)F)S(C)(=O)=O` (stereo not shown) [Compound 412, N-[3-({[2-{[4-(1,2-dihydroxyethyl)phenyl]amino}-5-(trifluoromethyl)pyrimidin-4-yl]amino}methyl)pyridin-2-yl]-N-methylmethane-sulfonamide]: less than 0.595 nM.

Turning to `CC(NC(=O)c1cccc(Nc2ncc(C(F)(F)F)c(NCc3cccnc3N(C)S(C)(=O)=O)n2)c1)C1CC1` (stereo not shown) [Compound 151, N-(1-cyclopropylethyl)-3-({4-[({2-[methyl(methylsulfonyl)-amino]pyridin-3-yl}methyl)amino]-5-(trifluoromethyl)pyrimidin-2-yl}amino)benzamide], the IC50 was determined as 5.24 nM. The same measure for `C[C@H](N)c1ccc(Nc2ncc(C(F)(F)F)c(NCc3cccc(N(C)S(C)(=O)=O)c3)n2)cc1` [Compound 365, N-[3-({[2-({4-[(1S)-1-aminoethyl]phenyl}amino)-5-(trifluoromethyl)pyrimidin-4-yl]amino}methyl)phenyl]-N-methylmethanesulfonamide]: 0.976 nM. Under `CN(c1ncccc1CNc1nc(Nc2ccc(CCl)cc2)ncc1C(F)(F)F)S(C)(=O)=O` [Example 7, N-(3-((2-(4-(chloromethyl)phenylamino)-5-(trifluoromethyl)pyrimidin-4-ylamino)methyl)pyridin-2-yl)-N-methylmethanesulfonamide] stands 1.55 nM; under `CN(c1ncccc1CNc1nc(Nc2cccc(C(=O)N3CC[C@@H](O)C3)c2)ncc1C(F)(F)F)S(C)(=O)=O` [Compound 175, N-{3-[({2-[(3-{[(3R)-3-hydroxypyrrolidin-1-yl]carbonyl}phenyl)amino]-5-(trifluoromethyl)pyrimidin-4-yl}amino)methyl]pyridin-2-yl}-N-methyl-methanesulfonamide], 4.08 nM.
